Test results from PMC9459959, “Synthesis and Activity of 2-Acyl-cyclohexane-1,3-dione Congeners Derived from Peperomia Natural Products against the Plant p-Hydroxyphenylpyruvate Dioxygenase Herbicidal Molecular Target Site” (Plants, 2022).
Read-outs that look alike come from different tables or passages of the source.

Biological target: T1, HPPD (p-hydroxyphenylpyruvate dioxygenase) (Arabidopsis thaliana, UniProt P93836)
T1 construct: gene HPD; recombinant, overexpressed in E. coli, tested in total soluble protein extract; 1SP9 given only as docking structure
T1 sequence (P93836 1-445): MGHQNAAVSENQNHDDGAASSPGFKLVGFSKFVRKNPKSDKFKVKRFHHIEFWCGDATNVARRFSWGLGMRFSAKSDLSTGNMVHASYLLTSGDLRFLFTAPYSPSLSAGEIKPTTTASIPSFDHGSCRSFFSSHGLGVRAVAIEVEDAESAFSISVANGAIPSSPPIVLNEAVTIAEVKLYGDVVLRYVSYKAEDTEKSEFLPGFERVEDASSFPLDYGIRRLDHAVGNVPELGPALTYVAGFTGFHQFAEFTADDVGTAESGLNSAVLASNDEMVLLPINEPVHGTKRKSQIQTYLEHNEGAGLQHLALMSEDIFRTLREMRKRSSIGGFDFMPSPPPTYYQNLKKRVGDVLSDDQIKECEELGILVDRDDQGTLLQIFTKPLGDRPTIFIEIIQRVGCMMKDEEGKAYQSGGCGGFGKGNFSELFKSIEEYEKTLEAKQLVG
Assay: HPLC of homogentisate formed ([…] nm), dose-response
Format: biochemical

SMILES	IC50 (read-out: I50 (μM) ^ab) [µM]	IC50 (15 min incubation, slow tight-binding class, E. coli total soluble protein extract, positive control, read-out: I50app) [µM]
Cc1noc2c1C(=O)CCC2 [1a]	> 100	–
CC(=O)C1C(=O)CCCC1=O [1b]	23.1 ± 4.34	–
Cc1noc2c1C(=O)C(O)CC2 (stereo not shown) [1c]	> 100	–
CC(=O)C1=C(O)C(O)CCC1=O (stereo not shown) [1d]	> 1000	–
Cc1noc2c1C(=O)CC(C)(C)C2 [1e]	> 100	–
CC(=O)C1C(=O)CC(C)(C)CC1=O [1f]	53.1 ± 17.1	–
Cc1noc2c1C(=O)C(O)C(C)(C)C2 (stereo not shown) [1g]	> 100	–
CC(=O)C1=C(O)C(O)C(C)(C)CC1=O (stereo not shown) [1h]	166 ± 19.7	–
CCCC(=O)C1C(=O)CCCC1=O [2a]	35.1 ± 6.24	–
CCCC(=O)C1C(=O)CC(C)(C)CC1=O [2b]	16.6 ± 4.36	–
CCCCCc1noc2c1C(=O)CCC2 [3a]	> 100	–
CCCCCC(=O)C1C(=O)CCCC1=O [3b]	2.93 ± 0.47	–
CCCCCc1noc2c1C(=O)C(O)CC2 (stereo not shown) [3c]	> 100	–
CCCCCC(=O)C1=C(O)C(O)CCC1=O (stereo not shown) [3d]	15.8 ± 4.9	–
CCCCCC(=O)C1C(=O)CC(C)(C)CC1=O [3e]	4.17 ± 0.45	–
CCCCCCCCCc1noc2c1C(=O)CCC2 [4a]	> 100	–
CCCCCCCCCC(=O)C1C(=O)CCCC1=O [4b]	0.46 ± 0.06	–
CCCCCCCCCc1noc2c1C(=O)C(O)CC2 (stereo not shown) [4c]	> 100	–
CCCCCCCCCC(=O)C1=C(O)C(O)CCC1=O (stereo not shown) [4d]	1.25 ± 0.4	–
CCCCCCCCCC(=O)C1C(=O)CC(C)(C)CC1=O [4e]	2.66 ± 0.95	–
CCCCCCCCCCCc1noc2c1C(=O)CCC2 [5a]	> 100	–
CCCCCCCCCCCC(=O)C1C(=O)CCCC1=O [5b]	0.3 ± 0.03	–
CCCCCCCCCCCc1noc2c1C(=O)C(O)CC2 (stereo not shown) [5c]	> 100	–

SMILES	IC50 (read-out: I50 (μM) ^ab) [µM]	IC50 (15 min incubation, slow tight-binding class, E. coli total soluble protein extract, positive control, read-out: I50app) [µM]
CCCCCCCCCCCC(=O)C1=C(O)C(O)CCC1=O (stereo not shown) [5d]	0.18 ± 0.02	–
CCCCCCCCCCCc1noc2c1C(=O)CC(C)(C)C2 [5e]	> 100	–
CCCCCCCCCCCC(=O)C1C(=O)CC(C)(C)CC1=O [5f]	0.77 ± 0.11	–
CCCCCCCCCCCc1noc2c1C(=O)C(O)C(C)(C)C2 (stereo not shown) [5g]	> 100	–
CCCCCCCCCCCCCCCCC(=O)C1C(=O)CCCC1=O [6a]	1.58 ± 0.2	–
CCCCCCCCCCCCCCCCC(=O)C1C(=O)CC(C)(C)CC1=O [6b]	1.7 ± 0.31	–
CC(=O)CCCC(=O)C1C(=O)CCCC1=O [7a]	9.6 ± 1.4	–
CC(=O)CCCC(=O)C1C(=O)CC(C)(C)CC1=O [7b]	17.2 ± 2.6	–
O=C(C=Cc1ccccc1)C1C(=O)CCCC1=O [8a]	5.43 ± 0.58	–
O=C1CCCC(=O)C1C(=O)CCc1ccccc1 [8b]	1.27 ± 0.09	–
O=C(/C=C/c1ccccc1)C1=C(O)C(O)CCC1=O (stereo not shown) [8c]	59 ± 3.16	–
CC1(C)CC(=O)C(C(=O)C=Cc2ccccc2)C(=O)C1 [8d]	58.6 ± 8.67	–
CC1(C)CC(=O)C(C(=O)CCc2ccccc2)C(=O)C1 [8e]	2.17 ± 0.37	–
Cc1ccccc1C=CC(=O)C1C(=O)CCCC1=O [9a]	1.2 ± 0.14	–
Cc1ccccc1CCC(=O)C1C(=O)CCCC1=O [9b]	0.97 ± 0.09	–
Cc1ccccc1C=CC(=O)C1C(=O)CC(C)(C)CC1=O [9c]	28.7 ± 8.7	–
COc1cccc(C=CC(=O)C2C(=O)CCCC2=O)c1 [10a]	0.89 ± 0.1	–
COc1cccc(CCC(=O)C2C(=O)CCCC2=O)c1 [10b]	0.31 ± 0.04	–
COc1cccc(C=CC(=O)C2C(=O)CC(C)(C)CC2=O)c1 [10c]	6.4 ± 1.2	–
COc1cccc(CCC(=O)C2C(=O)CC(C)(C)CC2=O)c1 [10d]	1.5 ± 0.17	–
COc1ccc(C=CC(=O)C2C(=O)CCCC2=O)cc1 [11a]	12.3 ± 1.6	–
COc1ccc(CCC(=O)C2C(=O)CCCC2=O)cc1 [11b]	2.36 ± 0.3	–
COc1ccc(CCC(=O)C2=C(O)C(O)CCC2=O)cc1 (stereo not shown) [11c]	59.5 ± 11.8	–

SMILES	IC50 (read-out: I50 (μM) ^ab) [µM]	IC50 (15 min incubation, slow tight-binding class, E. coli total soluble protein extract, positive control, read-out: I50app) [µM]
COc1ccc(C=CC(=O)C2C(=O)CC(C)(C)CC2=O)cc1 [11d]	141 ± 27	–
COc1ccc(CCC(=O)C2C(=O)CC(C)(C)CC2=O)cc1 [11e]	12.9 ± 2.18	–
COc1ccc(C=CC(=O)C2C(=O)CCCC2=O)cc1OC [12a]	9.16 ± 1.21	–
COc1ccc(CCC(=O)C2C(=O)CCCC2=O)cc1OC [12b]	1.35 ± 0.18	–
COc1ccc(C=CC(=O)C2C(=O)CC(C)(C)CC2=O)cc1OC [12c]	14.1 ± 2.21	–
COc1ccc(CCC(=O)C2C(=O)CC(C)(C)CC2=O)cc1OC [12d]	8.69 ± 1.32	–
COc1cc(C=CC(=O)C2C(=O)CCCC2=O)cc(OC)c1OC [14a]	2.06 ± 0.13	–
COc1cc(C=CC(=O)C2C(=O)CC(C)(C)CC2=O)cc(OC)c1OC [14c]	2.22 ± 0.5	–
COc1cc(CCC(=O)C2C(=O)CC(C)(C)CC2=O)cc(OC)c1OC [14d]	2.29 ± 0.25	–
CN(C)c1ccc(CCC(=O)C2C(=O)CCCC2=O)cc1 [15b]	4.47 ± 0.51	–
CN(C)c1ccc(CCC(=O)C2C(=O)CC(C)(C)CC2=O)cc1 [15d]	3.46 ± 0.64	–
O=C1CCCC(=O)C1C(=O)CCc1ccc(Cl)cc1 [16b]	0.24 ± 0.02	–
CC1(C)CC(=O)C(C(=O)CCc2ccc(Cl)cc2)C(=O)C1 [16d]	2.05 ± 0.19	–
O=C(C=Cc1ccc(Br)cc1)C1C(=O)CCCC1=O [17a]	7.55 ± 0.93	–
O=C(/C=C/c1ccc(Br)cc1)C1=C(O)C(O)CCC1=O (stereo not shown) [17b]	28.7 ± 4.82	–
CC1(C)CC(=O)C(C(=O)C=Cc2ccc(Br)cc2)C(=O)C1 [17c]	8.34 ± 1.57	–
O=C(C=Cc1cccc(Br)c1)C1C(=O)CCCC1=O [18a]	0.82 ± 0.08	–
CC1(C)CC(=O)C(C(=O)C=Cc2cccc(Br)c2)C(=O)C1 [18b]	2.42 ± 0.25	–
O=C(C=Cc1ccc([N+](=O)[O-])cc1)C1C(=O)CCCC1=O [19a]	7.61 ± 0.89	–
CC1(C)CC(=O)C(C(=O)C=Cc2ccc([N+](=O)[O-])cc2)C(=O)C1 [19b]	27.5 ± 2.39	–
CS(=O)(=O)c1ccc(C(=O)C2C(=O)CCCC2=O)c(Cl)c1 [sulcotrione, reference compound]	–	0.25 ± 0.02
